18 compounds from patent publication US20230140430A1, “1H-PYRAZOLO[4,3-d]PYRIMIDINE COMPOUNDS AS TOLL-LIKE RECEPTOR 7 (TLR7) AGONISTS” (BRISTOL-MYERS SQUIBB COMPANY, priority 2020, published 2023) can be followed below.

Assay [1] concerns CD69. Description: Induction of CD69 in human whole blood. The format is cell-based. Here is the method: The induction of Type I interferon (IFN) MX-1 genes and the B-cell activation marker CD69 are downstream events that occur upon activation of the TLR7 pathway. The following is a human whole blood assay that measures their induction in response to a TLR7 agonist.
Heparinized human whole blood was harvested from human subjects and treated with test TLR7 agonist compounds at 1 mM. The blood was diluted with RPMI 1640 media and Echo was used to predot 10 nL per well giving a final concentration of 1 uM (10 nL in 10 uL of blood). After mixing on a shaker for 30 sec, the plates were covered and placed in a 37° C. chamber for o/n=17 hrs. Fixing/lysis buffer was prepared (5×->1× in H2O, warm at 37° C.; Cat #BD 558049) and kept the perm buffer (on ice) for later use.
For surface markers staining (CD69): prepared surface Abs: 0.045 ul hCD14-FITC (ThermoFisher Cat #MHCD1401)+0.6 ul hCD19-ef450 (ThermoFisher Cat #48-0198-42)+1.5 ul hCD69-PE (cat #BD555531)+0.855 ul FACS buffer. Added 3 ul/well, spin1000 rpm for 1 min and mixed on shaker for 30 sec, put on ice for 30 mins. Stop stimulation after 30 min with 70 uL of prewarmed 1× fix/lysis buffer and use Feliex mate to resuspend (15 times, change tips for each plate) and incubate at 37 C for 10 min.
Centrifuge at 2000 rpm for 5 min aspirate with HCS plate washer, mix on shaker for 30 sec and then wash with 70 uL in dPBS and pelleted 2×s (2000 rpm for 5 min) and 50 ul wash in FACS buffer pelleted 1×s (2000 rpm for 5 min). Mix on shaker for 30 sec. For Intracellular markers staining (MX-1): Add 50 ul of BD Perm buffer III and mix on shaker for 30 sec. Incubate on ice for 30 minutes (in the dark). Wash with 50 uL of FACS buffer 2× (spin @2300 rpm×5 min after perm) followed by mixing on shaker for 30 sec. Resuspended in 20 ul of FACS buffer containing MX1 antibody ( )(4812)-Alexa 647: Novus Biologicals #NBP2-43704AF647) 20 ul FACS bf+0.8 ul hlgG+0.04 ul MX-1. Spin 1000 rpm for 1 min, mix on shaker for 30se and the samples were incubated at RT in the dark for 45 minutes followed by washing 2×FACS buffer (spin @2300 rpm×5 min after perm). Resuspend 20 ul (35 uL total per well) of FACS buffer and cover with foil and place in 4° C. to read the following day. Plates were read on iQuePlus. The results were loaded into toolset and […] curves are generated in curve master. The y-axis 100% is set to 1 uM of resiquimod.

For assay [2], the target named is T1, human TLR7 (Homo sapiens, UniProt Q9NYK1).
T1 construct: host or cells: HEK-Blue TLR7 cells (engineered human embryonic kidney cells)
T1 sequence (Q9NYK1 27-1049): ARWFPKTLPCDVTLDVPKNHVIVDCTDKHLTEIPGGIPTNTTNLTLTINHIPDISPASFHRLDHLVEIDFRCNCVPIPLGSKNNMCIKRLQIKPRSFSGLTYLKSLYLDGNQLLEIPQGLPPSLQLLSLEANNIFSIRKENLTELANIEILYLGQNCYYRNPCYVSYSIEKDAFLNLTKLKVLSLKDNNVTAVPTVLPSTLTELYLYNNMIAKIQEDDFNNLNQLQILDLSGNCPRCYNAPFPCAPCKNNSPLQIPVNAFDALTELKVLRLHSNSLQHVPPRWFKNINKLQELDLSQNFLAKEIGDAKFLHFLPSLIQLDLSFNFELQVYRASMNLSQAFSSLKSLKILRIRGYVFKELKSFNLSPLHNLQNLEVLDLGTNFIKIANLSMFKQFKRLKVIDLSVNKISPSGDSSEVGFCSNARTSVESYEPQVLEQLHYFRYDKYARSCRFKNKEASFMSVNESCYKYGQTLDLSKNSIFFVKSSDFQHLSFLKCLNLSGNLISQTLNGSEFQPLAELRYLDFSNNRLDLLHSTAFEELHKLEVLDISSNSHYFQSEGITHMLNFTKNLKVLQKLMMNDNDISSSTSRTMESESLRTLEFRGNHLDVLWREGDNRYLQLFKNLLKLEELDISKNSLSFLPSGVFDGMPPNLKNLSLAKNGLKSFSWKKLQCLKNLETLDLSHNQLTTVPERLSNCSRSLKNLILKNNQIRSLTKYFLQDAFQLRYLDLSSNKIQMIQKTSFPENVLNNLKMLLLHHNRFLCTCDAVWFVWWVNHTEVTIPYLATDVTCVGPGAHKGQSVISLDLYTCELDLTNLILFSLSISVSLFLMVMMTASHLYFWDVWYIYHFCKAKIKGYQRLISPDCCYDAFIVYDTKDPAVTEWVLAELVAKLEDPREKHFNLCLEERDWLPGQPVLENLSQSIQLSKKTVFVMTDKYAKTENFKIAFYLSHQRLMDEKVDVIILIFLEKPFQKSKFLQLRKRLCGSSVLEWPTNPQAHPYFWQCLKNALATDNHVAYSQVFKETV
In words: Human TLR7 agonist activity assay (HEK-Blue TLR7 SEAP reporter). It counts as cell-based. Conditions: HEK-Blue TLR7 cells, 18 h treatment, average where assay was performed multiple times, read-out: hTLR7 Agonism EC50.
Protocol: This procedure describes a method for assaying human TLR7 (hTLR7) agonist activity of the compounds disclosed in this specification.
HEK-Blue™ TLR7 cells were added to each well of a 384-well tissue-culture plate (15,000 cells per well) and incubated 16-18 h at 37° C., 5% CO2. Compounds (100 nl) were dispensed into wells containing the HEK-Blue™ TLR cells and the treated cells were incubated at 37° C., 5% CO2. After 18 h treatment ten microliters of freshly-prepared Quanti-Blue™ reagent (Invivogen) was added to each well, incubated for 30 min (37° C., 5% CO2) and SEAP levels measured using an Envision plate reader (OD=620 nm).

[3] abbreviates: human whole blood, 17 hrs, CD69 surface staining, 100% set to 1 uM of resiquimod, average where assay was performed multiple times, read-out: hWB CD69 EC50.
Where [4] appears, read: Homo sapiens, 17 h, read-out: hWB CD69 EC50 (nM).

Where two headings read alike, the source gives them in different places.

As usually defined, the EC50 is the concentration at which the effect is half-maximal. `CCC[C@@H](CCO)Nc1nc(N)nc2cnn(Cc3ccc(C(=O)NCC4CCNCC4)cc3OC)c12` [Compound 101, 4-[(5-amino-7-{[(3S)-1-hydroxyhexan-3-yl]amino}-1H-pyrazolo[4,3-d]pyrimidin-1-yl)methyl]-3-methoxy-N-[(piperidin-4-yl)methyl]benzamide]: the EC50 in assay [1] (setting [3]) is at least 1000 nM; in assay [2], 1300 nM.
In the case of `CCCCNc1nc(N)nc2cnn(Cc3ccc(C(=O)NC4CCOCC4)cc3OC)c12` [Compound 102, 4-{[5-amino-7-(butylamino)-1H-pyrazolo[4,3-d]pyrimidin-1-yl]methyl}-3-methoxy-N-(oxan-4-yl)benzamide], the EC50 in assay [1] (setting [3]) is at least 1000 nM.
In the case of `CCCCNc1nc(N)nc2cnn(Cc3ccc(C(=O)NC4CCC4)cc3OC)c12` [Compound 103, 4-{[5-amino-7-(butylamino)-1H-pyrazolo[4,3-d]pyrimidin-1-yl]methyl}-N-cyclobutyl-3-methoxybenzamide], the EC50 is at least 1000 nM in assay [1] (setting [3]) and 1660 nM in assay [2].
Consider `CCCCNc1nc(N)nc2cnn(Cc3ccc(C(=O)N4CCNCC4)cc3OC)c12` [Compound 104, N7-butyl-1-{[2-methoxy-4-(piperazine-1-carbonyl)phenyl]methyl}-1H-pyrazolo[4,3-d]pyrimidine-5,7-diamine], for which the EC50 in assay [1] (setting [3]) was found to be 120 nM; in assay [2], 40.7 nM.
Regarding `CCCCNc1nc(N)nc2cnn(Cc3ccc(C(=O)N4CCN(CCO)CC4)cc3OC)c12` [Compound 105, 2-[4-(4-{[5-amino-7-(butylamino)-1H-pyrazolo[4,3-d]pyrimidin-1-yl]methyl}-3-methoxybenzoyl)piperazin-1-yl]ethan-1-ol], the EC50 in assay [1] (setting [3]) turned out to be 32.1 nM; in assay [2], 32.6 nM.
For `CCCCNc1nc(N)nc2cnn(Cc3ccc(C(=O)N4CCN(C)CC4)cc3OC)c12` [Compound 106, N7-butyl-1-{[2-methoxy-4-(4-methylpiperazine-1-carbonyl)phenyl]methyl}-1H-pyrazolo[4,3-d]pyrimidine-5,7-diamine], the half-maximal effective concentration (EC50) in assay [1] (setting [3]) amounted to 4.5 nM; in assay [2], 20.8 nM.
For the compound `CCCCNc1nc(N)nc2cnn(Cc3ccc(C(=O)N4CCN(C(C)=O)CC4)cc3OC)c12` [Compound 107, 1-[4-(4-{[5-amino-7-(butylamino)-1H-pyrazolo[4,3-d]pyrimidin-1-yl]methyl}-3-methoxybenzoyl)piperazin-1-yl]ethan-1-one], the EC50 in assay [1] (setting [3]) came out at 93.4 nM; in assay [2], 264 nM.
In the case of `CCCCNc1nc(N)nc2cnn(Cc3ccc(C(=O)N4CCN(CC(F)(F)F)CC4)cc3OC)c12` [Compound 108, N7-butyl-1-({2-methoxy-4-[4-(2,2,2-trifluoroethyl)piperazine-1-carbonyl]phenyl}methyl)-1H-pyrazolo[4,3-d]pyrimidine-5,7-diamine], the EC50 in assay [1] (setting [3]) was at least 1000 nM; in assay [2], 602 nM.
`CCCCNc1nc(N)nc2cnn(Cc3ccc(C(=O)N4CCC(N(C)C)CC4)cc3OC)c12` [Compound 109, N7-butyl-1-({4-[4-(dimethylamino)piperidine-1-carbonyl]-2-methoxyphenyl}methyl)-1H-pyrazolo[4,3-d]pyrimidine-5,7-diamine]: the EC50 in assay [1] (setting [3]) stood at 49.6 nM; in assay [2], 29.7 nM.
Consider `CCCCNc1nc(N)nc2cnn(Cc3ccc(C(=O)N4CCCN(C)CC4)cc3OC)c12` [Compound 110, N7-butyl-1-{[2-methoxy-4-(4-methyl-1,4-diazepane-1-carbonyl)phenyl]methyl}-1H-pyrazolo[4,3-d]pyrimidine-5,7-diamine], for which the concentration giving a half-maximal response (EC50) in assay [1] (setting [3]) is 3.9 nM; in assay [2], 16.3 nM.
In the case of `CCCCNc1nc(N)nc2cnn(Cc3ccc(C(=O)NCCN(C)C)cc3OC)c12` [Compound 111, 4-{[5-amino-7-(butylamino)-1H-pyrazolo[4,3-d]pyrimidin-1-yl]methyl}-N-[2-(dimethylamino)ethyl]-3-methoxybenzamide], the EC50 in assay [1] (setting [3]) was found to be 6.8 nM; in assay [2], 78 nM.
As for `CCCCNc1nc(N)nc2cnn(Cc3ccc(C(=O)N4CCC(CO)CC4)cc3OC)c12` [Compound 112, [1-(4-{[5-amino-7-(butylamino)-1H-pyrazolo[4,3-d]pyrimidin-1-yl]methyl}-3-methoxybenzoyl)piperidin-4-yl]methanol], the figures for the EC50 in assay [1] (setting [3]) and in assay [2] were 81.9 nM and 154 nM, respectively.
`CCCCNc1nc(N)nc2cnn(Cc3ccc(C(=O)N4CCC(O)CC4)cc3OC)c12` [Compound 113, 1-(4-{[5-amino-7-(butylamino)-1H-pyrazolo[4,3-d]pyrimidin-1-yl]methyl}-3-methoxybenzoyl)piperidin-4-ol]: the EC50 in assay [1] (setting [3]) amounted to 106 nM; in assay [2] it was 111 nM.
Consider `CCCCNc1nc(N)nc2cnn(Cc3ccc(C(=O)NC4CCN(C)CC4)cc3OC)c12` [Compound 114, 4-{[5-amino-7-(butylamino)-1H-pyrazolo[4,3-d]pyrimidin-1-yl]methyl}-3-methoxy-N-(1-methylpiperidin-4-yl)benzamide], for which the concentration giving a half-maximal response (EC50) in assay [1] (setting [4]) turned out to be 24.4 nM; in assay [2], 68.9 nM.
For `CCCCNc1nc(N)nc2cnn(Cc3ccc(C(=O)N4CCNC(=O)C4)cc3OC)c12` [Compound 115, 4-(4-{[5-amino-7-(butylamino)-1H-pyrazolo[4,3-d]pyrimidin-1-yl]methyl}-3-methoxybenzoyl)piperazin-2-one], the EC50 in assay [1] (setting [3]) was determined as 224 nM; in assay [2], 384 nM.
The matching figures for `CCCCNc1nc(N)nc2cnn(Cc3ccc(C(=O)N4CCC(CCO)CC4)cc3OC)c12` [Compound 116, 2-[1-(4-{[5-amino-7-(butylamino)-1H-pyrazolo[4,3-d]pyrimidin-1-yl]methyl}-3-methoxybenzoyl)piperidin-4-yl]ethan-1-ol]: 42.6 nM and 41.6 nM.
With `CCCCNc1nc(N)nc2c(C)nn(Cc3ccc(C(=O)NC4CCN(C)CC4)cc3OC)c12` [Compound 117, 4-{[5-amino-7-(butylamino)-3-methyl-1H-pyrazolo[4,3-d]pyrimidin-1-yl]methyl}-3-methoxy-N-(1-methylpiperidin-4-yl)benzamide], the 50% effective concentration (EC50) in assay [1] (setting [4]) was 56.9 nM; in assay [2], 467 nM.
In the case of `CCCCNc1nc(N)nc2c(C)nn(Cc3ccc(C(=O)N4CCN(CCO)CC4)cc3OC)c12` [Compound 118, 2-[4-(4-{[5-amino-7-(butylamino)-3-methyl-1H-pyrazolo[4,3-d]pyrimidin-1-yl]methyl}-3-methoxybenzoyl)piperazin-1-yl]ethan-1-ol], the EC50 was 63.3 nM in assay [1] (setting [3]) and 405 nM in assay [2].
